Source: PubChem BioAssay AID2060511 (Molecular Pharmacology Branch, DTP, NCI, 2025)

Test system: 422866-222-R5-J1-PDC spheroids with HUVEC/MSC, viability
Assay: Anticancer human tumor 422866-222-R5-J1-PDC patient-derived pancreatic adenocarcinoma cell line growth inhibition [GQUAD]
Details: for IC50: curve of first compound; for viability, T/C: stronger effect = lower value
How it was run: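 Tumor cells were grown as complex spheroids with HUVEC endothelial cells and mesenchymal stem cells as stroma. G-quadruplex stabilizers were combined with targeted agents over half-log dilutions from near the clinical Cmax, or from 10 microM.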

[1] = second compound 0.0316 µM, first compound 0.0316 µM
[2] = second compound 0.0316 µM, first compound 0.1 µM
[3] = second compound 0.0316 µM, first compound 0.316 µM
[4] = second compound 0.0316 µM, first compound 1 µM
[5] = second compound 0.0316 µM, first compound 3.16 µM
[6] = second compound 0.0316 µM, first compound 10 µM
[7] = second compound 0.1 µM, first compound 0.0316 µM
[8] = second compound 0.1 µM, first compound 0.1 µM
[9] = second compound 0.1 µM, first compound 0.316 µM
[10] = second compound 0.1 µM, first compound 1 µM
[11] = second compound 0.1 µM, first compound 3.16 µM
[12] = second compound 0.1 µM, first compound 10 µM
[13] = second compound 0.316 µM, first compound 0.0316 µM
[14] = second compound 0.316 µM, first compound 0.1 µM
[15] = second compound 0.316 µM, first compound 0.316 µM
[16] = second compound 0.316 µM, first compound 1 µM
[17] = second compound 0.316 µM, first compound 3.16 µM
[18] = second compound 0.316 µM, first compound 10 µM
[19] = second compound 1 µM, first compound 0.0316 µM
[20] = second compound 1 µM, first compound 0.1 µM
[21] = second compound 1 µM, first compound 0.316 µM
[22] = second compound 1 µM, first compound 1 µM
[23] = second compound 1 µM, first compound 3.16 µM
[24] = second compound 1 µM, first compound 10 µM
[25] = second compound 3.16 µM, first compound 0.0316 µM
[26] = second compound 3.16 µM, first compound 0.1 µM
[27] = second compound 3.16 µM, first compound 0.316 µM
[28] = second compound 3.16 µM, first compound 1 µM
[29] = second compound 3.16 µM, first compound 3.16 µM
[30] = second compound 3.16 µM, first compound 10 µM
[31] = second compound 10 µM, first compound 0.0316 µM
[32] = second compound 10 µM, first compound 0.1 µM
[33] = second compound 10 µM, first compound 0.316 µM
[34] = second compound 10 µM, first compound 1 µM
[35] = second compound 10 µM, first compound 3.16 µM
[36] = second compound 10 µM, first compound 10 µM
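Also: spheroids exposed to compounds for seven days before reading.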
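For viability, T/C in this document: percent viability relative to DMSO vehicle control taken as 100%.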

**Q.** Which IC50 (second compound 0.0316 µM) does the source give for C=CC(=O)N1CCN(c2nc(=O)n(-c3c(C)ccnc3C(C)C)c3nc(-c4c(O)cccc4F)c(F)cc23)C(C)C1 (stereo unspecified) + Cc1cnc(CNC(=O)c2c(=O)c3ccc(N4CCCN(C)CC4)nc3n3c2sc2ccccc23)cn1 here?
**A.** Its IC50 is less than 31.6 nM.

**Q.** What about the IC50 (second compound 0.1 µM) of the same compound?
**A.** Its IC50 is less than 31.6 nM.

**Q.** And the IC50 (second compound 0.316 µM)?
**A.** The IC50 was less than 31.6 nM.

**Q.** And the IC50 (second compound 1 µM)?
**A.** Its IC50 is less than 31.6 nM.

**Q.** And the IC50 (second compound 3.16 µM)?
**A.** Its IC50 is less than 31.6 nM.

**Q.** And the IC50 (second compound 10 µM)?
**A.** Its IC50 is less than 31.6 nM.

**Q.** And the viability, T/C [1]?
**A.** The viability, T/C was 41.2%.

**Q.** And the viability, T/C [2]?
**A.** Its viability, T/C is 32.1%.

**Q.** What about the viability, T/C [3] of the same compound?
**A.** The viability, T/C was 28.1%.

**Q.** And the viability, T/C [4]?
**A.** Its viability, T/C is 19.9%.

**Q.** And the viability, T/C [5]?
**A.** The viability, T/C was 33.4%.

**Q.** And the viability, T/C [6]?
**A.** Its viability, T/C is 30.6%.

**Q.** And the viability, T/C [7]?
**A.** The viability, T/C was 40.4%.

**Q.** And the viability, T/C [8]?
**A.** The viability, T/C was 30.4%.

**Q.** What about the viability, T/C [9] of the same compound?
**A.** The viability, T/C was 26.7%.

**Q.** And the viability, T/C [10]?
**A.** Its viability, T/C is 25.7%.

**Q.** And the viability, T/C [11]?
**A.** The viability, T/C was 32.6%.

**Q.** And the viability, T/C [12]?
**A.** Its viability, T/C is 30.6%.

**Q.** And the viability, T/C [13]?
**A.** The viability, T/C was 36.8%.

**Q.** And the viability, T/C [14]?
**A.** Its viability, T/C is 30.4%.

**Q.** And the viability, T/C [15]?
**A.** The viability, T/C was 27.2%.

**Q.** What about the viability, T/C [16] of the same compound?
**A.** Its viability, T/C is 29%.

**Q.** And the viability, T/C [17]?
**A.** Its viability, T/C is 34%.

**Q.** What about the viability, T/C [18] of the same compound?
**A.** The viability, T/C was 33.7%.

**Q.** And the viability, T/C [19]?
**A.** The viability, T/C was 29.3%.

**Q.** And the viability, T/C [20]?
**A.** The viability, T/C was 28.6%.

**Q.** And the viability, T/C [21]?
**A.** Its viability, T/C is 30.2%.

**Q.** And the viability, T/C [22]?
**A.** The viability, T/C was 28.1%.

**Q.** What about the viability, T/C [23] of the same compound?
**A.** The viability, T/C was 35.9%.

**Q.** And the viability, T/C [24]?
**A.** Its viability, T/C is 37.7%.

**Q.** And the viability, T/C [25]?
**A.** The viability, T/C was 32%.

**Q.** And the viability, T/C [26]?
**A.** Its viability, T/C is 32.4%.

**Q.** And the viability, T/C [27]?
**A.** The viability, T/C was 29.8%.

**Q.** What about the viability, T/C [28] of the same compound?
**A.** The viability, T/C was 27.9%.

**Q.** And the viability, T/C [29]?
**A.** The viability, T/C was 37.3%.

**Q.** What about the viability, T/C [30] of the same compound?
**A.** The viability, T/C was 36.4%.

**Q.** What about the viability, T/C [31] of the same compound?
**A.** The viability, T/C was 30.5%.

**Q.** What about the viability, T/C [32] of the same compound?
**A.** The viability, T/C was 23.3%.

**Q.** What about the viability, T/C [33] of the same compound?
**A.** Its viability, T/C is 28.9%.

**Q.** What about the viability, T/C [34] of the same compound?
**A.** Its viability, T/C is 27.8%.

**Q.** What about the viability, T/C [35] of the same compound?
**A.** Its viability, T/C is 33.5%.

**Q.** And the viability, T/C [36]?
**A.** The viability, T/C was 34.2%.

**Q.** What does the source list for CC(C)n1c(=O)n(C)c2cnc3cc(F)c(-c4ccc(OCCCN5CCCCC5)nc4)cc3c21 + Cc1cnc(CNC(=O)c2c(=O)c3ccc(N4CCCN(C)CC4)nc3n3c2sc2ccccc23)cn1?
**A.** IC50 (second compound 0.0316 µM): > 10000 nM; IC50 (second compound 0.1 µM): > 10000 nM; IC50 (second compound 0.316 µM): > 10000 nM; IC50 (second compound 1 µM): > 10000 nM; IC50 (second compound 3.16 µM): > 10000 nM; IC50 (second compound 10 µM): > 10000 nM; viability, T/C [1]: 81.6%; viability, T/C [2]: 74.2%; viability, T/C [3]: 75%; viability, T/C [4]: 74%; viability, T/C [5]: 76.7%; viability, T/C [6]: 58.5%; viability, T/C [7]: 84.9%; viability, T/C [8]: 85.2%; viability, T/C [9]: 75%; viability, T/C [10]: 75.6%; viability, T/C [11]: 90.8%; viability, T/C [12]: 50.9%; viability, T/C [13]: 86.2%; viability, T/C [14]: 93%; viability, T/C [15]: 96%; viability, T/C [16]: 80.6%; viability, T/C [17]: 90.8%; viability, T/C [18]: 69.1%; viability, T/C [19]: 87.5%; viability, T/C [20]: 85.8%; viability, T/C [21]: 87.3%; viability, T/C [22]: 96%; viability, T/C [23]: 96.7%; viability, T/C [24]: 71%; viability, T/C [25]: 74.5%; viability, T/C [26]: 90.5%; viability, T/C [27]: 81.1%; viability, T/C [28]: 94.2%; viability, T/C [29]: 92.6%; viability, T/C [30]: 77.4%; viability, T/C [31]: 70.9%; viability, T/C [32]: 76.5%; viability, T/C [33]: 82.2%; viability, T/C [34]: 82.3%; viability, T/C [35]: 85.5%; viability, T/C [36]: 62.5%

**Q.** Which results are given for CC[C@@]1(O)C(=O)OCc2c1cc1n(c2=O)Cc2cc3c(CN(C)C)c(O)ccc3nc2-1 + Cc1cnc(CNC(=O)c2c(=O)c3ccc(N4CCCN(C)CC4)nc3n3c2sc2ccccc23)cn1?
**A.** IC50 (second compound 0.0316 µM): 191 nM; IC50 (second compound 0.1 µM): > 316 nM; IC50 (second compound 0.316 µM): > 316 nM; IC50 (second compound 1 µM): > 316 nM; IC50 (second compound 3.16 µM): > 316 nM; IC50 (second compound 10 µM): > 316 nM; viability, T/C (second compound 0.0316 µM, first compound 0.000999 µM): 97.1%; viability, T/C (second compound 0.0316 µM, first compound 0.00316 µM): 92.6%; viability, T/C (second compound 0.0316 µM, first compound 0.00999 µM): 94%; viability, T/C [1]: 77.1%; viability, T/C (second compound 0.0316 µM, first compound 0.0999 µM): 51.4%; viability, T/C [3]: 48.9%; viability, T/C (second compound 0.1 µM, first compound 0.000999 µM): 95.8%; viability, T/C (second compound 0.1 µM, first compound 0.00316 µM): 86.8%; viability, T/C (second compound 0.1 µM, first compound 0.00999 µM): 82.8%; viability, T/C [7]: 70.8%; viability, T/C (second compound 0.1 µM, first compound 0.0999 µM): 69.6%; viability, T/C [9]: 56.2%; viability, T/C (second compound 0.316 µM, first compound 0.000999 µM): 89.2%; viability, T/C (second compound 0.316 µM, first compound 0.00316 µM): 85%; viability, T/C (second compound 0.316 µM, first compound 0.00999 µM): 87.3%; viability, T/C [13]: 80.6%; viability, T/C (second compound 0.316 µM, first compound 0.0999 µM): 80.9%; viability, T/C [15]: 58.6%; viability, T/C (second compound 1 µM, first compound 0.000999 µM): 78.6%; viability, T/C (second compound 1 µM, first compound 0.00316 µM): 81.4%; viability, T/C (second compound 1 µM, first compound 0.00999 µM): 76.5%; viability, T/C [19]: 81.4%; viability, T/C (second compound 1 µM, first compound 0.0999 µM): 83.6%; viability, T/C [21]: 74.9%; viability, T/C (second compound 3.16 µM, first compound 0.000999 µM): 79.7%; viability, T/C (second compound 3.16 µM, first compound 0.00316 µM): 80.8%; viability, T/C (second compound 3.16 µM, first compound 0.00999 µM): 83.8%; viability, T/C [25]: 81.5%; viability, T/C (second compound 3.16 µM, first compound 0.0999 µM): 90.9%; viability, T/C [27]: 74.6%; viability, T/C (second compound 10 µM, first compound 0.000999 µM): 82.6%; viability, T/C (second compound 10 µM, first compound 0.00316 µM): 88.7%; viability, T/C (second compound 10 µM, first compound 0.00999 µM): 81.1%; viability, T/C [31]: 83.2%; viability, T/C (second compound 10 µM, first compound 0.0999 µM): 88.4%; viability, T/C [33]: 60.6%
